Data set [1] has as its system Breast (MCF-7) cancer cell line. Description: SRB assay for anticancer activity, MCF-7. Type of data set: cell-based, human. Particulars: for inhibition at 10 µM: Homo sapiens, MCF7, 48 h, read-out: % Inhibition at 10 μM Solution in Cancer Cell Line. On the procedure: (§1) SRB Assay Protocol for Anticancer Activity:
(§2) Addition of cells: The human cancer cell lines Ovary (SK-OV-3), Lung (A549) and Breast (MCF-7) maintained in RPMI-1640 medium; Cervical (HeLa), Head & Neck (FaDu) and Colorectal adenocarcinoma (SW620) are maintained in DMEM medium. The enumerated cells are dispensed in a 96-well tissue culture plate. Each well receives 100 μl of the cell suspension containing 10,000-20,000 cells (depending upon the nature of cell line). The cells are then incubated at 37° C. in 5% CO2 concentration for 24 h before addition of the test samples/standard drugs.
(§3) Addition of test samples: 100 μl of working solution of the test sample is added to the cell monolayer to give a final concentration 10 μM (pure compound) For each sample, duplicate wells are included.
(§4) Positive (Drug) and Negative (Vehicle) Controls: In every assay plate both positive and vehicle controls are included. In positive control well, adriamycin (Doxorubicin) is added at 10 μM concentration. In vehicle control wells, DMSO is added. In all assay wells the final concentration of DMSO is 0.1%. The plates are then incubated at 37° C. in 5% CO2 concentration for 48 h.
(§5) Addition of SRB and Colorimetric reading: After 48 h incubation, cells attached to substratum of the plate are fixed by adding cold 50% trichloroacetic acid (TCA, 50 μl/well) on top of the medium and incubated at 4° C. for 1 h. After that the plate is gently washed 5 times with slow running tap water via plastic tubing to remove TCA, culture medium and dead cells. The water stream should not be injected very fast or directly on to the bottom of the wells as this can cause cell monolayer to detach. After washing, the plates are allowed to dry in air (plates can be stored for long periods at room temperature after fixing and drying step) […], 50 μl/well of SRB solution is added and left at room temperature for 30 min. At the end of the staining period, unbound SRB is removed by quickly rinsing plates 4-5 times with 1% (v/v) acetic acid. Plates are allowed to air-dry at room temperature (Stained and dried plates can be stored indefinitely at room temperature). 150 μl of 10 mM Tris base solution is added to each well and plate is shaken for 15 min on a gyratory shaker to solubilize the protein-bound dye. Alternatively, if a shaker is unavailable, SRB gets solubilized after 30 min in Tris base solution. Absorbance is measured at 510 nm in a microplate spectrophotometer.
(§6) Percentage of cell growth inhibition in presence of the test sample is calculated as follows: […]
For orientation: In SRB staining, fixed cells bind dye roughly in proportion to their protein.

Data set [2] deals with Breast MDA-MB-231 cancer cell line. Put plainly: SRB assay for anticancer activity, MDA-MB-231. The data set is classed as cell-based, human. Particulars: 48 h; for inhibition at 10 µM: Homo sapiens, read-out: % Inhibition at 10 μM Solution in Cancer Cell Line.
The subject of data set [3] is Colon DLD-1 cancer cell line. Put plainly: SRB assay for anticancer activity, DLD-1. Type of data set: cell-based, human. The conditions noted are these: 48 h; for inhibition at 10 µM: Homo sapiens, read-out: % Inhibition at 10 μM Solution in Cancer Cell Line.
Data set [4] has as its system Colorectal adenocarcinoma (SW620) cell line. Description: SRB assay for anticancer activity, SW620. The data set is classed as cell-based, human. The conditions noted are these: for inhibition at 10 µM: Homo sapiens, SW-620, Colon SW620, 48 h, read-out: % Inhibition at 10 μM Solution in Cancer Cell Line. On the procedure:
as §1, §2, §3, §4, §5, §6

The test system of data set [5] is Colon COLO205 cancer cell line. Description: SRB assay for anticancer activity, COLO205. The conditions noted are these: for inhibition at 10 µM: Homo sapiens, COLO 205, 48 h, read-out: % Inhibition at 10 μM Solution in Cancer Cell Line. The data set is classed as cell-based, human.
Data set [6] concerns Cervical (HeLa) cancer cell line. Put plainly: SRB assay for anticancer activity, HeLa. Type of data set: cell-based, human. The conditions noted are these: 48 h; for inhibition at 10 µM: Homo sapiens, read-out: % Inhibition at 10 μM Solution in Cancer Cell Line. On the procedure: as §1, §2, §3, §4, §5, §6
Data set [7] relates to cervical C-33A cancer cell line. Put plainly: SRB assay for anticancer activity, C-33A. Type of data set: cell-based, human. The conditions noted are these: 48 h; for inhibition at 10 µM: Homo sapiens, read-out: % Inhibition at 10 μM Solution in Cancer Cell Line.
The subject of data set [8] is Head & Neck (FaDu) cancer cell line. Put plainly: SRB assay for anticancer activity, FaDu. The data set is classed as cell-based, human. The conditions noted are these: 48 h; for inhibition at 10 µM: Homo sapiens, read-out: % Inhibition at 10 μM Solution in Cancer Cell Line. As to the method: as §1, §2, §3, §4, §5, §6
The test system of data set [9] is Head & Neck KB cancer cell line. Description: SRB assay for anticancer activity, KB. The data set is classed as cell-based, human. Particulars: 48 h; for inhibition at 10 µM: Homo sapiens, read-out: % Inhibition at 10 μM Solution in Cancer Cell Line.
The subject of data set [10] is Lung (A549) cancer cell line. Put plainly: SRB assay for anticancer activity, A549. Type of data set: cell-based, human. The conditions noted are these: 48 h; for inhibition at 10 µM: Homo sapiens, read-out: % Inhibition at 10 μM Solution in Cancer Cell Line. On the procedure: as §1, §2, §3, §4, §5, §6
Data set [11] deals with Lung NCI-H358 cancer cell line. Put plainly: SRB assay for anticancer activity, NCI-H358. Type of data set: cell-based, human. The conditions noted are these: 48 h; for inhibition at 10 µM: Homo sapiens, read-out: % Inhibition at 10 μM Solution in Cancer Cell Line.
Data set [12] concerns Lung NCI-H446 cancer cell line. Put plainly: SRB assay for anticancer activity, NCI-H446. The data set is classed as cell-based, human. The conditions noted are these: 48 h; for inhibition at 10 µM: Homo sapiens, read-out: % Inhibition at 10 μM Solution in Cancer Cell Line.
The test system of data set [13] is Ovary (SK-OV-3) cancer cell line. Put plainly: SRB assay for anticancer activity, SK-OV-3. Type of data set: cell-based, human. Particulars: for inhibition at 10 µM: Homo sapiens, SK-OV-3, Ovary SKOV3, 48 h, read-out: % Inhibition at 10 μM Solution in Cancer Cell Line. As to the method: as §1, §2, §3, §4, §5, §6
Data set [14] concerns Ovary NIH:OVACR-3 cancer cell line. Description: SRB assay for anticancer activity, NIH:OVACR-3. The data set is classed as cell-based, human. The conditions noted are these: 48 h; for inhibition at 10 µM: Homo sapiens, read-out: % Inhibition at 10 μM Solution in Cancer Cell Line.
Data set [15] has as its system Ovary PA1 cancer cell line. Description: SRB assay for anticancer activity, PA1. The data set is classed as cell-based, human. Particulars: 48 h; for inhibition at 10 µM: Homo sapiens, read-out: % Inhibition at 10 μM Solution in Cancer Cell Line.
Another data set has as its system KB cells. The conditions noted are these: Chinese Chemical Letters 2013, 24, 57-58, read-out: cytotoxicity against KB cells in vitro, IC50; cited from earlier work.

As a reminder, the % Inhibition is the drop in the measured response relative to a control, in per cent. With “8-Hydroxy-4,7,7-trimethyl-7,8-dihydrocyclopenta[e]isoindole-1,3(2H,6H)-dione [Compound 8]”, the “% Inhibition at 10 μM Solution in Cancer Cell Line” value (shortened to “% Inhibition at 10 μM Solution”) is on record as 4.31% in data set [1] (48 h); 0.00% in [2]; 0.00% in data set [3]; −11.48% in data set [4] (Colon SW620, 48 h); 0.00% in [5] (48 h); 29.05% in data set [6]. In addition, the “% Inhibition at 10 μM Solution” value in data set [7] is recorded as 0.00%; in data set [8], 2.10%; in [9], 0.00%; in data set [10] it was 6.05%; in [11], 0.00%; in data set [12], 0.00%. Further, the “% Inhibition at 10 μM Solution” value in [13] (Ovary SKOV3, 48 h) is 5.55%; in data set [14], 0.00%; in [15], 0.00%.
For orientation: IC50 means the concentration that inhibits the measured activity by half. Take `Cc1cc2c(c3c1C(=O)NC3=O)C(O)C(C)(C)C2` (stereo not shown) [Compound 1]: in the data set with KB cells, the IC50 is 16.6 µM.
Usually inhibition stands for the drop in the measured response relative to a control, in per cent. In the case of `CCOC(=O)C1(C(=O)OCC)Cc2ccc3c(c2C1)C(=O)NC3=O` [Compound 18, Diethyl 1,3-dioxo-2,3,6,8-tetrahydrocyclopenta[e]isoindole-7,7(1H)-dicarboxylate], the inhibition at 10 µM worked out at 6.84% in data set [1]; 0% in data set [2]; 0% in [3]; 13.2% in [4]; 0% in data set [5]; 20.9% in data set [6]. Further, the inhibition at 10 µM is 0% in [7]; -0.05% in data set [8]; 0% in data set [9]; 28.8% in data set [10]; 0% in data set [11]; 0% in [12]. For the same molecule, the inhibition at 10 µM was -1.46% in data set [13], 0% in [14] and 0% in [15].
For `CCOC(=O)C1(C(=O)OCC)Cc2ccc3c(c2C1)C(=O)N(CCO)C3=O` [Compound 19, Diethyl 2-(2-hydroxyethyl)-1,3-dioxo-2,3,6,8-tetrahydrocyclopenta[e]isoindole-7,7(1H)-dicarboxylate], the inhibition at 10 µM in data set [1] stood at 3.44%; in [2], 0%; in data set [3], 0%; in data set [4], 15.2%; in data set [5], 0%; in data set [6], 25.7%. For the same molecule, the inhibition at 10 µM in [7] came out at 0%; in data set [8], 0.16%; in data set [9], 0%; in data set [10] it was 29%; in data set [11], 0%; in data set [12], 0%. The inhibition at 10 µM is -3.91% in data set [13], 0% in [14] and 0% in data set [15].
For `CCOC(=O)C1(C(=O)OCC)Cc2cc(C)c3c(c2C1)C(=O)NC3=O` [Compound 22, Diethyl 4-methyl-1,3-dioxo-2,3,6,8-tetrahydrocyclopenta[e]isoindole-7,7(1H)-dicarboxylate], the inhibition at 10 µM came to 10.4% in data set [1]; 0% in data set [2]; 0% in [3]; 15.4% in data set [4]; 0% in data set [5]; 34.3% in data set [6]. Besides, the inhibition at 10 µM in [7] came out at 0%; in data set [8] it was 10.3%; in data set [9] it was 0%; in data set [10] it was 27%; in data set [11], 0%; in data set [12] it was 0%. The inhibition at 10 µM is -9.36% in [13], 0% in data set [14] and 0% in data set [15].
`CCOC(=O)C1(C(=O)OCC)Cc2cc(C)c3c(c2C1)C(=O)N(CCO)C3=O` [Compound 23, Diethyl 2-(2-hydroxyethyl)-4-methyl-1,3-dioxo-2,3,6,8-tetrahydrocyclopenta[e]isoindole-7,7(1H)-dicarboxylate]: the inhibition at 10 µM worked out at 8.24% in [1]; 0% in data set [2]; 0% in data set [3]; 13.3% in [4]; 0% in data set [5]; 31% in data set [6]. In addition, the inhibition at 10 µM in [7] was 0%; in data set [8] it was 11%; in [9], 0%; in [10], 19.2%; in data set [11] it was 0%; in data set [12], 0%. The inhibition at 10 µM in data set [13] is -7.23%; in [14], 0%; in data set [15], 0%.
Take `CCOC(=O)C1(C(=O)OCC)Cc2cc(C)c3c(c2C1)C(=O)N(S(=O)(=O)c1ccc(F)cc1)C3=O` [Compound 24, Diethyl 2-((4-fluorophenyl)sulfonyl)-4-methyl-1,3-dioxo-2,3,6,8-tetrahydrocyclopenta[e]isoindole-7,7(1H)-dicarboxylate]: the inhibition at 10 µM in data set [1] is 34.9%; in data set [2] it was 0%; in [3], 0%; in data set [4] it was 50.5%; in data set [5], 0%; in [6] it was 65.2%. The inhibition at 10 µM in data set [7] stood at 0%; in data set [8], 59.4%; in data set [9] it was 0%; in data set [10], 48.2%; in [11], 0%; in data set [12], 0%. Also, the inhibition at 10 µM stood at 21.2% in data set [13], 0% in data set [14] and 0% in data set [15].
Turning to `COc1cccc2c1C(=O)c1c(O)c3c(c(O)c1C2=O)C[C@@](O)(C(=O)CO)C[C@@H]3O[C@H]1C[C@H](N)[C@H](O)[C@H](C)O1` [Doxorubicin, reference compound], the inhibition at 10 µM in [1] was determined as 66.7%; in data set [2], 0%; in data set [3], 0%; in [4] it was 80.3%; in data set [5], 0%; in data set [6], 89.5%. Also, the inhibition at 10 µM in data set [7] was 0%; in [8], 89.6%; in data set [9], 0%; in data set [10] it was 69.1%; in [11], 0%; in data set [12], 0%. Further, the inhibition at 10 µM amounted to 58% in data set [13], 0% in data set [14] and 0% in data set [15].

The values above are taken from patent US9771325B2, “Tricyclic compounds and preparation thereof” (Council of Scientific & Industrial Research, priority 2014, dated 2017).
